Test results as given in patent US20260226056A1, “SUBSTITUTED 1H-PYRAZOLE-4-CARBOXAMIDES AS SARM1 INHIBITORS” (DISARM THERAPEUTICS, INC., priority 2023, published 2026).

Molecular target: T1, hSARM1 (Homo sapiens, UniProt Q6SZW1)
T1 construct: This assay makes use of full length SARM1, which encompasses the ARM, SAM and TIR domains; made in house; host or cells: NRK1-HEK293T cells (transient transfection; cleared lysate used as enzyme)
T1 sequence (Q6SZW1 28-724): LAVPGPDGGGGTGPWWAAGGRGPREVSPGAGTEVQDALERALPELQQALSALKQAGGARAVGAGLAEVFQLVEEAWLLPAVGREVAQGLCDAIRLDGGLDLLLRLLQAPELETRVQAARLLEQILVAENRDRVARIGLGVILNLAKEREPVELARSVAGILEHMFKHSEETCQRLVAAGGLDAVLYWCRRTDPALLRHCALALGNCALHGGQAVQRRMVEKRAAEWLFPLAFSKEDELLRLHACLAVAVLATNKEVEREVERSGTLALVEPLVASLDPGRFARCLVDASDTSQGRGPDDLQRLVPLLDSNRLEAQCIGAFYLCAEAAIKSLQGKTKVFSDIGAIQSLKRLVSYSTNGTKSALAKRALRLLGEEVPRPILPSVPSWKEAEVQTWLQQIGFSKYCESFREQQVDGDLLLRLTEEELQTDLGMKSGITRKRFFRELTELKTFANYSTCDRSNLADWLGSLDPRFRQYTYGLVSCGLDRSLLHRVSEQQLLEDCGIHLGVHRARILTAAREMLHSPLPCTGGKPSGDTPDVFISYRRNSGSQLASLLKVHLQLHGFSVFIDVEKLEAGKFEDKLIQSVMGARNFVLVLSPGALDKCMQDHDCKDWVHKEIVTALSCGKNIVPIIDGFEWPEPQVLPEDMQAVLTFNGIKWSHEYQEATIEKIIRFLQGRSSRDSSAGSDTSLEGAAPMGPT
Test: ARM-SAM-TIR SARM1 IC50 Assay (NADase activity, NAD+ cleavage, RapidFire MS)
Format: biochemical
Settings: ARM-SAM-TIR lysate 5 μg/mL, 2 hrs. pre-incubation with compound, 5 μM NAD+, 2 hrs. incubation
Protocol: This describes an assay of ARM-SAM-TIR NADase activity and use of this assay to measure the efficacy of compounds of the present invention to block SARM1 mediated NAD+ cleavage. This assay was optimized in such a way as to characterize the efficacy of the compounds of the present invention to inhibit SARM1 activity and to calculate an IC50 value for each compound. This assay makes use of full length SARM1, which encompasses the ARM, SAM and TIR domains.
NRK1-HEK293T cells were seeded onto 150 cm^2 plates at 20×10^6 cells per plate. The next day, the cells were transfected with 15 μg ARM-SAM-TIR expression plasmid (SEQ ID NO: 1 as disclosed in WO 2019/236879, Pages 77-81; Paragraph) [0310]).
The cultures were supplemented with 1 mM NR at time of transfection to minimize toxicity from ARM-SAM-TIR overexpression. Forty-eight hours after transfection, cells were harvested, pelleted by centrifugation at 1,000 rpm (Sorvall ST 16R centrifuge, Thermo Fisher), and washed once with cold PBS (0.01 M phosphate buffered saline NaCl 0.138 M; KCl 0.0027 M; pH 7.4). The cells were resuspended in PBS with protease inhibitors (Complete™ protease inhibitor cocktail, Roche product #11873580001) and cell lysates were prepared by sonication (Branson Sonifer 450, output=3, 20 episodes of stroke). The lysates were centrifuged (12,000×g for 10 min at 4° C.) to remove cell debris and the supernatants (containing ARM-SAM-TIR protein) were stored at −80° C. for later use in the in vitro ARM-SAM-TIR NADase assay (see below). Protein concentration was determined by the Bicinchoninic (BCA) method and used to normalize lysate concentrations.
The enzymatic assay was performed in a 384-well polypropylene plate in Dulbecco's PBS buffer in a final assay volume of 20 μL. ARM-SAM-TIR lysate with a final concentration of 5 μg/mL was pre-incubated with the respective compound at 1% DMSO final assay concentration over 2 hrs. at room temperature. The reaction was initiated by addition of 5 μM final assay concentration of NAD+ as substrate. After a 2 hrs. ambient temperature incubation, the reaction was terminated with 40 μL of stop solution of 7.5% trichloroacetic acid in acetonitrile. The NAD+ and ADPR concentrations were analyzed by a RapidFire High Throughput Mass Spectrometry System (Agilent Technologies, Santa Clara, CA) using an API4000 triple quadrupole mass spectrometer (AB Sciex Framingham, MA).
Compounds having an activity designated as “A” provided an IC50<50 nM; compounds having an activity designated as “B” provided an IC50 51-100 nM; compounds having an activity designated as “C” provided an IC50 101-500 nM; compounds having an activity designated as “D” provided an IC50 501-1000 nM; compounds having an activity designated as “E” provided an IC50>1000 nM.

Which IC50 does the source give for `O=C1NCN(C(=O)CCc2ccc(Cl)nc2)c2[nH]nc(-c3ccncc3)c21` [Example 28, 7-(3-(6-Chloropyridin-3-yl)propanoyl)-3-(pyridin-4-yl)-1,5,6,7-tetrahydro-4H-pyrazolo[3,4-d]pyrimidin-4-one] here?
The IC50 was greater than 1 µM.
